The source of these data is patent US9145411B2, “Substituted amino-pyrimidine derivatives” (Asana Biosciences, LLC, priority 2012, dated 2015).

What is called pIC50 is −log10 of the IC50, conventionally taken in molar units.

pIC50: −log10 of the molar value.

For assay [1], the target named is T1, PI3Kα (wild-type) (Homo sapiens, UniProt P42336).
T1 construct: made in house; host or cells: SF9 insect cells
Briefly: PI3 Kinase TR-FRET assay, PI3Kα (wild-type). The conditions noted are these: wild-type P110/P85α, 10 μM ATP. The format is biochemical. The method, boiled down: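 Sf9-expressed, Ni-purified p110/p85α (5 ng) with PIP2 was preincubated with compound for 60 min at room temperature in buffer with 40 mM MgCl2 and 5 mM DTT. The reaction ran 30 min at room temperature with 10 μM PIP2 and 10 μM ATP. The TR-FRET 665/615 nm ratio was used to derive IC50 from dose-response curves.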

The target in assay [2] is T2, mTOR kinase (Homo sapiens, UniProt P42345).
T2 construct: purchased Millipore, USA
Briefly: mTOR kinase TR-FRET assay. Particulars: 20 μM ATP. The format is biochemical. The gist of the method:
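Test compounds were pre-incubated 60 min with mTOR (5 ng), then ULight-p70 S6K (Thr389) peptide (50 nM) and ATP (20 μM) were added in HEPES 50 mM pH 7.5, EGTA, MnCl2 3 mM. After 60 min at room temperature, EDTA stop and Eu-anti-phospho antibody TR-FRET (665/615 nm) gave IC50 from sigmoidal variable-slope fits.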

For assay [3], the system named is pAkt(T308). Briefly: In-cell Western assay, pAkt(T308), PC3 cells. In kind it is cell-based. Particulars: Homo sapiens, PC-3, 2 hours incubation. The gist of the method:
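PC3 cells, 22,000/well in Ham's F12K, exposed to serial compound dilutions for 2 h, then fixed and immunostained for each phospho-epitope. Eu-labelled secondary read by time-resolved fluorescence (ex 340, em 615 nm), corrected by Hoechst 33258 signal (ex 355, em 460 nm). IC50 from sigmoidal dose-response fit.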

The test system of assay [4] is pAkt(S473). Kind of assay: In-cell Western assay, pAkt(S473), PC3 cells. In kind it is cell-based. The conditions noted are these: Homo sapiens, PC-3, 2 hours incubation. How it is done: (§1) Cells from human prostate cancer cell line PC3 (American Type Culture Collection (ATCC), Manassas, Va. 20108 USA) were seeded at an optimal density of 22,000 cell/well in 96-well plates containing Ham's F12K medium (90 μL) and incubated overnight. The compound dilutions were carried out in 100% DMSO followed by a dilution in the medium. Test compounds were added in serial dilutions to the wells and incubated for 2 hours. The cells were washed and fixed with 4% paraformaldehyde. After incubation at room temperature for 1 hour in the dark, blocking was done for 2 hours at room temperature. Primary antibodies for pAkt(S473) ([…] phosphorylated at serine 473), pAkt(T308) (Akt phosphorylated at threonine 308) and for pS6RP (S235/236) (phosphorylated at serine 235/236) (commercially available from Cell Signaling Technology®, whose protocol was followed for the in-cell western assay, were diluted to the required concentration and added to the corresponding wells followed by overnight incubation at 4° C. Eu-labeled rabbit (PE) (Perkin-Elmer USA catalog #AD0106) secondary antibody was added and incubated for 2 hours at room temperature. Delfia® enhancement solution (cat #1244-105, Perkin Elmer USA) was subsequently added to the plate before taking the reading at 615 nm with excitation wavelength of 340 nm, after which 0.5 μg/mL of Hoechst® 33258 dye (Catalog #86140-5, Sigma) was added to the plate and fluorescence emission was read at 460 nm with 355 nm excitation, to evaluate the correction factor. IC50 values were calculated using a sigmoidal dose-response curve fit in GraphPad Prism® v5 software.

For assay [5], the system named is pS6RP (S235/236). Kind of assay: In-cell Western assay, pS6RP (S235/236), PC3 cells. In kind it is cell-based. Particulars: Homo sapiens, PC-3, 2 hours incubation. How it is done: as §1
The subject of assay [6] is PC3 cells. Briefly: XTT assay for cell viability, PC3 cells. The conditions noted are these: Homo sapiens, PC-3; PC3 cell proliferation, 96 hours. The format is cell-based. The method, boiled down:
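Log-phase PC3 cells (1000/well) were seeded for 24 h, then exposed to serially diluted compounds (DMSO dilutions) for 96 h. Viability was measured by XTT dye conversion at 37 °C, with absorbance read at 465 nm. EC50 was obtained from a sigmoidal dose-response fit.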
On the technique in general: Formazan colour is commonly taken as a measure of viable cells.

T2 sequence (P42345 1362-2549 limits assumed): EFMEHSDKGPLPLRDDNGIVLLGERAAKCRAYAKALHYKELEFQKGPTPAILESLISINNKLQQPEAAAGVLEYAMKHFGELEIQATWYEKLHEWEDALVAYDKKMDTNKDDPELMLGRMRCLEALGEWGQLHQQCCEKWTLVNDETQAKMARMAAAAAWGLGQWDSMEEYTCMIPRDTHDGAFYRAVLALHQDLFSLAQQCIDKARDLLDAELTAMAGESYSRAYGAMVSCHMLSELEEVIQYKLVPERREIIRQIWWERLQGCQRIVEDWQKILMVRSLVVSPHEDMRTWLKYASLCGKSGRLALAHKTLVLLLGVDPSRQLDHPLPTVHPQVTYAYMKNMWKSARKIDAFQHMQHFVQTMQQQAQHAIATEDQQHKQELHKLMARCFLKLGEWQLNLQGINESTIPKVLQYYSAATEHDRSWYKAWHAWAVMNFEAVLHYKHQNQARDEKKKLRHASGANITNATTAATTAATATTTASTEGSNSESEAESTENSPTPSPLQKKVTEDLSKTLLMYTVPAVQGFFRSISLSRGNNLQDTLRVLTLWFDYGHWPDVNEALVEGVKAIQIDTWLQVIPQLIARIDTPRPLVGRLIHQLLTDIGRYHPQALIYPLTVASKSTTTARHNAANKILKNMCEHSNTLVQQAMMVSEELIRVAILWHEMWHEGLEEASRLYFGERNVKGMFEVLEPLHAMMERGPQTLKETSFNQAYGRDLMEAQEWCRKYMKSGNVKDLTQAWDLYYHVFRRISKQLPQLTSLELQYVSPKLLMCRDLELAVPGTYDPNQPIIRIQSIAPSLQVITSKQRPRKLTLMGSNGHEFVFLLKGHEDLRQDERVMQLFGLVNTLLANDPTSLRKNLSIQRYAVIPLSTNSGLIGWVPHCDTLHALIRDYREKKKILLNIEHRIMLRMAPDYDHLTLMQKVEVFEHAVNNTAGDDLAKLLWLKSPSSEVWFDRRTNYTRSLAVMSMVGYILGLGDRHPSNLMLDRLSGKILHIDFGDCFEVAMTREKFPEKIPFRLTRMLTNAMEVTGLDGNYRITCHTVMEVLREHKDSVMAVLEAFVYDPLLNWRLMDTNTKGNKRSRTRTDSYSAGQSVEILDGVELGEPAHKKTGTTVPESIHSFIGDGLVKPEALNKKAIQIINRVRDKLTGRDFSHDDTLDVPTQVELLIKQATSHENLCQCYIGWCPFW
T1 sequence (P42336 whole entry, species assumed): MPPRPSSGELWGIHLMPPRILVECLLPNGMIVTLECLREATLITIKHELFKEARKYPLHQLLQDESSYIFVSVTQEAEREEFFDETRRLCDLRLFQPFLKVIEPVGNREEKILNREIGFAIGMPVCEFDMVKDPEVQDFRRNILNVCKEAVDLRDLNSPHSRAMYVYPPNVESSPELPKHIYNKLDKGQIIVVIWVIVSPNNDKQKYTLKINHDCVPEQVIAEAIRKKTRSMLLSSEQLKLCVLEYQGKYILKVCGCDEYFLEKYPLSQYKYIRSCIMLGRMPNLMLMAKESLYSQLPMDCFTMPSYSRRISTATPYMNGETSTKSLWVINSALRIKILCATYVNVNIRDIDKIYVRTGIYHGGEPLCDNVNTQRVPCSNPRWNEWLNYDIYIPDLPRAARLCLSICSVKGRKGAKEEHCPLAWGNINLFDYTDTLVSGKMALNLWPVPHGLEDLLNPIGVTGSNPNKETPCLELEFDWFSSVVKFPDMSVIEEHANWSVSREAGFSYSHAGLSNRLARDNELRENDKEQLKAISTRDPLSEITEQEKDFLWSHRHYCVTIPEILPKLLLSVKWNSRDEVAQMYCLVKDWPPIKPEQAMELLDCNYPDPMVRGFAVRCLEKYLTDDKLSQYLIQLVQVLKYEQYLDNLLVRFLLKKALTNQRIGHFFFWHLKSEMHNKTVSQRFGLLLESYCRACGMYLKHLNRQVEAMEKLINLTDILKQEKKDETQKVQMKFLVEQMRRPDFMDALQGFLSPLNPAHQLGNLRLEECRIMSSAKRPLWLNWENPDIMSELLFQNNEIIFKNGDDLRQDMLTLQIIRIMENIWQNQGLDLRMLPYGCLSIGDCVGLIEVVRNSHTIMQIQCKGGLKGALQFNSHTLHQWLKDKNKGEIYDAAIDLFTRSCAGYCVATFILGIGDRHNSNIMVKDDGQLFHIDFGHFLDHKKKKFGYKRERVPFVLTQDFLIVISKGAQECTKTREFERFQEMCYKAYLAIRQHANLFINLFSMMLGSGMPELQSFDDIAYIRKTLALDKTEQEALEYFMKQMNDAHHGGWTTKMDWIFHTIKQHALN
T1 sequence (P27986 whole entry partner, species assumed): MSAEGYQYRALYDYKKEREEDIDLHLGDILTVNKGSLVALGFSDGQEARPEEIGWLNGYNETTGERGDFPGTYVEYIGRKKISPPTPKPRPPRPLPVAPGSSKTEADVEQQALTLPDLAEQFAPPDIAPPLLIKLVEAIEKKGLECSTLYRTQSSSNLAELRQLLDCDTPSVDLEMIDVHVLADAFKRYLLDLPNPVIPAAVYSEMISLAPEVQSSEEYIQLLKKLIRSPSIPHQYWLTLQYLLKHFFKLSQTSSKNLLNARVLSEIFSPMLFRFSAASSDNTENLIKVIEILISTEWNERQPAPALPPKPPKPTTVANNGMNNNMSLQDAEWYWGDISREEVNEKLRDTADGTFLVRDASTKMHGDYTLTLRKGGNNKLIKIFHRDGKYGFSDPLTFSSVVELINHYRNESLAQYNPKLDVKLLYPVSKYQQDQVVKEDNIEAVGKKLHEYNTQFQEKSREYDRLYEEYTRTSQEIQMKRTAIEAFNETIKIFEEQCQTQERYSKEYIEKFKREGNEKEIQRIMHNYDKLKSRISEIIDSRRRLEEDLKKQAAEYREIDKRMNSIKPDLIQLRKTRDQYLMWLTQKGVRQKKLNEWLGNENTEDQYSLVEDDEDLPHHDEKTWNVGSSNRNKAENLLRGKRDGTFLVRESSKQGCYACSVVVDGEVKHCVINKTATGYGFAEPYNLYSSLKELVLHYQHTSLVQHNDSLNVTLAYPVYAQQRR

In the case of `N#CC1(C(=O)Nc2cccc(-c3cnc4c(N5CCOCC5)nc(-c5cnc(N)nc5)nc4c3)c2)CC1` [Example 61, N-(3-(2-(2-amino-pyrimidin-5-yl)-4-morpholinopyrido[3,2-d]pyrimidin-7-yl)phenyl)-1-cyanocyclopropane-carboxamide], the pIC50 in assay [1] is greater than 7.30; in assay [2], greater than 7.30; in assay [3], greater than 7.00; in assay [4], 6.30 to 7.00; in assay [5] it was greater than 7.00; in assay [6] it was 6.30 to 7.00.
On to `CC(=O)Nc1cccc(-c2cnc3c(N4CCOCC4)nc(-c4cnc(N)nc4)nc3c2)c1` [Example 3, N-(3-(2-(2-Aminopyrimidin-5-yl)-4-morpholinopyrido[3,2-d]pyrimidin-7-yl)-phenyl)acetamide], for which the negative-log IC50 (pIC50) in assay [1] is greater than 7.30; in assay [2] it was greater than 7.30; in assay [3], 6.30 to 7.00; in assay [4], 6.30 to 7.00; in assay [5] it was 6.30 to 7.00; in assay [6], 6.30 to 7.00.
`Nc1ncc(-c2nc(N3CCOCC3)c3ncc(-c4cccc(NC(=O)C5CC5)c4)cc3n2)cn1` [Example 7, N-(3-(2-(2-Aminopyrimidin-5-yl)-4-morpholinopyrido[3,2-d]pyrimidin-7-yl)-phenyl)cyclopropanecarboxamide]: the pIC50 was greater than 7.30 in assay [1]; greater than 7.30 in assay [2]; 6.30 to 7.00 in assay [3]; greater than 7.00 in assay [4]; 6.30 to 7.00 in assay [5]; 6.30 to 7.00 in assay [6].
